Laboratory results as given in patent US20100004221A1, “THIAZEPINE DERIVATIVE” (DAIICHI SANKYO COMPANY, LIMITED, priority 2006, published 2010).

With `CC1(CO)Cc2nnc(-c3ccc(N4CCCCC4)cc3Cl)n2CCS1` (stereo not shown) [Example 38, {3-[2-Chloro-4-(piperidin-1-yl)phenyl]-8-methyl-5,6,8,9-tetrahydro[1,2,4]triazolo[4,3-d][1,4]thiazepin-8-yl}methanol] as the compound, how does the melting point read?
The melting point was 195 to 198 °C.

For `CC1(CO)Cc2nnc(-c3ccc(-c4cccc(Cl)c4)cc3F)n2CCS1` (stereo not shown) [Example 11, [3-(3′-Chloro-3-fluorobiphenyl-4-yl)-8-methyl-5,6,8,9-tetrahydro[1,2,4]triazolo[4,3-d][1,4]thiazepin-8-yl]methanol], which melting point is on record?
Its melting point is 165 to 168 °C.

Which melting point does the source give for `CC1(CO)Cc2nnc(-c3cccc4c3ccn4-c3ccc(F)cc3)n2CCS1` (stereo not shown) [Example 43, {3-[1-(4-Fluorophenyl)-1H-indol-4-yl]-8-methyl-5,6,8,9-tetrahydro[1,2,4]triazolo[4,3-d][1,4]thiazepin-8-yl}methanol] here?
Its melting point is 117 to 120 °C.

With `CC1(CO)Cc2nnc(-c3ccc(Oc4ccc(F)cc4)cc3Cl)n2CCS1` (stereo not shown) [Example 42, {3-[2-Chloro-4-(4-fluorophenoxy)phenyl]-8-methyl-5,6,8,9-tetrahydro[1,2,4]triazolo[4,3-d][1,4]thiazepin-8-yl}methanol] as the compound, how does the melting point read?
Its melting point is 138 to 140 °C.

With `COc1cc(-c2cccc(NS(C)(=O)=O)c2)ccc1-c1nnc2n1CCSC(C)(CO)C2` (stereo not shown) [Example 55, N-{4′-[8-(Hydroxymethyl)-8-methyl-5,6,8,9-tetrahydro[1,2,4]triazolo[4,3-d][1,4]thiazepin-3-yl]-3′-methoxybiphenyl-3-yl}methanesulfonamide] as the compound, how does the melting point read?
The melting point was 250 to 252 °C.

Which melting point does the source give for `CC1(CO)Cc2nnc(-c3ccc(N4CCCC4)cc3Cl)n2CCS1` (stereo not shown) [Example 39, {3-[2-Chloro-4-(pyrrolidin-1-yl)phenyl]-8-methyl-5,6,8,9-tetrahydro[1,2,4]triazolo[4,3-d][1,4]thiazepin-8-yl}methanol] here?
The melting point was 193 to 196 °C.

For `CC1(CO)Cc2nnc(-c3ccc(-c4ccc(F)cc4)cc3Cl)n2CCS1` (single isomer, unassigned; (-)) [Example 56, (−)-[3-(3-chloro-4′-fluorobiphenyl-4-yl)-8-methyl-5,6,8,9-tetrahydro[1,2,4]triazolo[4,3-d][1,4]thiazepin-8-yl]methanol], which melting point is on record?
Its melting point is 212 to 215 °C.

Which melting point does the source give for `CC1(CO)Cc2nnc(-c3ccc(-n4cccc4)cc3Cl)n2CCS1` (stereo not shown) [Example 40, {3-[2-Chloro-4-(1H-pyrrol-1-yl)phenyl]-8-methyl-5,6,8,9-tetrahydro[1,2,4]triazolo[4,3-d][1,4]thiazepin-8-yl}methanol] here?
Its melting point is 110 to 112 °C.

Which melting point does the source give for `CC1(CO)Cc2nnc(-c3ccc(-c4cc(Cl)ccc4F)cc3Cl)n2CCS1` (stereo not shown) [Example 29, [3-(3,5′-Dichloro-2′-fluorobiphenyl-4-yl)-8-methyl-5,6,8,9-tetrahydro[1,2,4]triazolo[4,3-d][1,4]thiazepin-8-yl]methanol] here?
Its melting point is 186 to 189 °C.

Which melting point does the source give for `CC1(CO)Cc2nnc(-c3ccc(-c4ccc(F)c(Cl)c4)cc3Cl)n2CCS1` (stereo not shown) [Example 30, [3-(3,3′-Dichloro-4′-fluorobiphenyl-4-yl)-8-methyl-5,6,8,9-tetrahydro[1,2,4]triazolo[4,3-d][1,4]thiazepin-8-yl]methanol] here?
Its melting point is 235 to 239 °C.

For `Cc1ccccc1-c1nnc2n1CCSC(C)(C)C2` [Example 46, 8,8-Dimethyl-3-(2-methylphenyl)-5,6,8,9-tetrahydro[1,2,4]triazolo[4,3-d][1,4]thiazepine], which melting point is on record?
Its melting point is 106 to 107 °C.

Which melting point does the source give for `CC1(C)Cc2nnc(-c3ccc(F)cc3Cl)n2CCS1` [Example 50, 3-(2-Chloro-4-fluorophenyl)-8,8-dimethyl-5,6,8,9-tetrahydro[1,2,4]triazolo[4,3-d][1,4]thiazepine] here?
Its melting point is 177 to 182 °C.

For `CC1(CO)Cc2nnc(-c3ccc(-c4cc(F)cc(F)c4)cc3Cl)n2CCS1` (stereo not shown) [Example 27, [3-(3-Chloro-3′,5′-difluorobiphenyl-4-yl)-8-methyl-5,6,8,9-tetrahydro[1,2,4]triazolo[4,3-d][1,4]thiazepin-8-yl]methanol], which melting point is on record?
Its melting point is 260 to 265 °C.

With `CC1(CO)Cc2nnc(-c3cccc(-c4ccc(F)cc4)c3Cl)n2CCS1` (stereo not shown) [Example 33, [3-(2-Chloro-4′-fluorobiphenyl-3-yl)-8-methyl-5,6,8,9-tetrahydro[1,2,4]triazolo[4,3-d][1,4]thiazepin-8-yl]methanol] as the compound, how does the melting point read?
Its melting point is 192 to 195 °C.

With `COc1cc(-c2ccc(F)c(F)c2)ccc1-c1nnc2n1CCSC(C)(CO)C2` (stereo not shown) [Example 31, [3-(3′,4′-Difluoro-3-methoxybiphenyl-4-yl)-8-methyl-5,6,8,9-tetrahydro[1,2,4]triazolo[4,3-d][1,4]thiazepin-8-yl]methanol] as the compound, how does the melting point read?
The melting point was 183 to 185 °C.

For `CC1(C)Cc2nnc(-c3ccccc3Cl)n2CCS1` [Example 45, 3-(2-Chlorophenyl)-8,8-dimethyl-5,6,8,9-tetrahydro[1,2,4]triazolo[4,3-d][1,4]thiazepine], which melting point is on record?
Its melting point is 183 to 185 °C.

For `Cc1ccc(-c2ccc(-c3nnc4n3CCSC(C)(CO)C4)c(Cl)c2)cc1` (stereo not shown) [Example 20, [3-(3-Chloro-4′-methylbiphenyl-4-yl)-8-methyl-5,6,8,9-tetrahydro[1,2,4]triazolo[4,3-d][1,4]thiazepin-8-yl]methanol], which melting point is on record?
Its melting point is 223 to 225 °C.

Which melting point does the source give for `CCc1ccccc1-c1nnc2n1CCSC(C)(C)C2` [Example 48, 3-(2-Ethylphenyl)-8,8-dimethyl-5,6,8,9-tetrahydro[1,2,4]triazolo[4,3-d][1,4]thiazepine] here?
Its melting point is 125 °C.

For `CC1(CO)Cc2nnc(-c3ccc(-c4ccncc4)cc3Cl)n2CCS1` (stereo not shown) [Example 36, {3-[2-Chloro-4-(pyridin-4-yl)phenyl]-8-methyl-5,6,8,9-tetrahydro[1,2,4]triazolo[4,3-d][1,4]thiazepin-8-yl}methanol], which melting point is on record?
The melting point was 229 to 233 °C.

Which melting point does the source give for `CCOc1ccccc1-c1nnc2n1CCSC(C)(C)C2` [Example 49, 3-(2-Ethoxyphenyl)-8,8-dimethyl-5,6,8,9-tetrahydro[1,2,4]triazolo[4,3-d][1,4]thiazepine] here?
The melting point was 136 to 137 °C.

For `COc1cccc(-c2ccc(-c3nnc4n3CCSC(C)(CO)C4)c(Cl)c2)c1` (stereo not shown) [Example 18, [3-(3-Chloro-3′-methoxybiphenyl-4-yl)-8-methyl-5,6,8,9-tetrahydro[1,2,4]triazolo[4,3-d][1,4]thiazepin-8-yl]methanol], which melting point is on record?
The melting point was 181 to 184 °C.

For `CC1(CO)Cc2nnc(-c3ccc(-c4ccccc4Cl)cc3Cl)n2CCS1` (stereo not shown) [Example 14, [3-(3,2′-Dichlorobiphenyl-4-yl)-8-methyl-5,6,8,9-tetrahydro[1,2,4]triazolo[4,3-d][1,4]thiazepin-8-yl]methanol], which melting point is on record?
The melting point was 177 to 180 °C.

For `CC1(CO)Cc2nnc(-c3ccc(-c4ccc(F)c(F)c4)cc3Cl)n2CCS1` (stereo not shown) [Example 26, [3-(3-Chloro-3′,4′-difluorobiphenyl-4-yl)-8-methyl-5,6,8,9-tetrahydro[1,2,4]triazolo[4,3-d][1,4]thiazepin-8-yl]methanol], which melting point is on record?
Its melting point is 231 to 234 °C.

Which melting point does the source give for `CC1(CO)Cc2nnc(-c3ccc(N4CCOCC4)cc3Cl)n2CCS1` (stereo not shown) [Example 37, {3-[2-Chloro-4-(morpholin-4-yl)phenyl]-8-methyl-5,6,8,9-tetrahydro[1,2,4]triazolo[4,3-d][1,4]thiazepin-8-yl}methanol] here?
The melting point was 191 to 193 °C.

Which melting point does the source give for `COc1cc(-c2cccc(Cl)c2)ccc1-c1nnc2n1CCSC(C)(CO)C2` (stereo not shown) [Example 24, [3-(3′-Chloro-3-methoxybiphenyl-4-yl)-8-methyl-5,6,8,9-tetrahydro[1,2,4]triazolo[4,3-d][1,4]thiazepin-8-yl]methanol] here?
The melting point was 173 to 176 °C.

For `CC1(CO)Cc2nnc(-c3ccc(-c4ccc(Cl)cc4)cc3Cl)n2CCS1` (stereo not shown) [Example 19, [3-(3,4′-Dichlorobiphenyl-4-yl)-8-methyl-5,6,8,9-tetrahydro[1,2,4]triazolo[4,3-d][1,4]thiazepin-8-yl]methanol], which melting point is on record?
The melting point was 219 to 223 °C.

Which melting point does the source give for `CC1(CO)Cc2nnc(-c3ccc(-c4ccccc4)cc3Cl)n2CCS1` (stereo not shown) [Example 9, [3-(3-Chlorobiphenyl-4-yl)-8-methyl-5,6,8,9-tetrahydro[1,2,4]triazolo[4,3-d][1,4]thiazepin-8-yl]methanol] here?
Its melting point is 166 to 169 °C.

With `CC1(CO)Cc2nnc(-c3ccc(-c4cccc(Cl)c4)cc3Cl)n2CCS1` (stereo not shown) [Example 16, [3-(3,3′-Dichlorobiphenyl-4-yl)-8-methyl-5,6,8,9-tetrahydro[1,2,4]triazolo[4,3-d][1,4]thiazepin-8-yl]methanol] as the compound, how does the melting point read?
The melting point was 173 to 176 °C.

With `COc1ccc(-c2ccc(-c3nnc4n3CCSC(C)(CO)C4)c(Cl)c2)cc1` (stereo not shown) [Example 21, [3-(3-Chloro-4′-methoxybiphenyl-4-yl)-8-methyl-5,6,8,9-tetrahydro[1,2,4]triazolo[4,3-d][1,4]thiazepin-8-yl]methanol] as the compound, how does the melting point read?
Its melting point is 179 to 182 °C.

For `CC1(CO)Cc2nnc(-c3ccc(-c4ccc(F)cc4)cc3Cl)n2CCS1` (single isomer, unassigned; (+)) [Example 57, (+)-[3-(3-Chloro-4′-fluorobiphenyl-4-yl)-8-methyl-5,6,8,9-tetrahydro[1,2,4]triazolo[4,3-d][1,4]thiazepin-8-yl]methanol], which melting point is on record?
Its melting point is 211 to 214 °C.

For `CC1(CO)Cc2nnc(-c3ccc(-c4ccc(F)cc4)cc3C(F)(F)F)n2CCS1` (stereo not shown) [Example 22, {3-[4′-Fluoro-3-(trifluoromethyl)biphenyl-4-yl)-8-methyl-5,6,8,9-tetrahydro[1,2,4]triazolo[4,3-d][1,4]thiazepin-8-yl]methanol], which melting point is on record?
The melting point was 202 to 204 °C.

Which melting point does the source give for `COc1cc(-c2ccc(F)cc2)ccc1-c1nnc2n1CCSC(C)(CO)C2` (stereo not shown) [Example 10, [3-(4′-Fluoro-3-methoxybiphenyl-4-yl)-8-methyl-5,6,8,9-tetrahydro[1,2,4]triazolo[4,3-d][1,4]thiazepin-8-yl]methanol] here?
The melting point was 212 to 215 °C.

For `CC1(CO)Cc2nnc(-c3ccc(-c4cccc(F)c4)cc3Cl)n2CCS1` (stereo not shown) [Example 15, [3-(3-Chloro-3′-fluorobiphenyl-4-yl)-8-methyl-5,6,8,9-tetrahydro[1,2,4]triazolo[4,3-d][1,4]thiazepin-8-yl]methanol], which melting point is on record?
The melting point was 206 to 209 °C.

With `CC1(CO)Cc2nnc(-c3ccc(-c4cccnc4)cc3Cl)n2CCS1` (stereo not shown) [Example 35, {3-[2-Chloro-4-(pyridin-3-yl)phenyl]-8-methyl-5,6,8,9-tetrahydro[1,2,4]triazolo[4,3-d][1,4]thiazepin-8-yl}methanol] as the compound, how does the melting point read?
Its melting point is 206 to 209 °C.
